Test results taken from ChEMBL document CHEMBL1136285, “Discovery of a novel potent Na+/Ca2+ exchanger inhibitor: design, synthesis and structure-activity relationships of 3,4-dihydro-2(1H)-quinazolinone derivatives” (Bioorg Med Chem Lett, 2003).

Assays:
[1] = pKa value was determined; assay type: physicochemical
Cavia porcellus [2] = organism: Cavia porcellus; assay: Inhibitory activity against Na+/[Ca2+] exchanger after 30 min of K+ free incubation in isolated left atria from guinea pig
Cavia porcellus [3] = organism: Cavia porcellus; assay: Inhibitory activity (1 uM) against Na+/[Ca2+] exchanger after 30 min of K+ free incubation in isolated left atria from guinea pig; assay type: functional

| SMILES | pKa [1] | IC30 (Cavia porcellus [2]) | Inhibition (Cavia porcellus [3]) |
| --- | --- | --- | --- |
| CCN(CC)CCN1C(=O)Nc2ccccc2C1c1ccccc1 (stereo not drawn) | 10.2 | 69 nM | – |
| CN(C)CCCN1C(=O)Nc2ccccc2C1Cc1ccccc1 (stereo not drawn) | – | > 10000 nM | – |
| CN(C)CCCN1C(S)=Nc2ccccc2C1c1ccccc1 (stereo not drawn) | – | 3800 nM | – |
| CCN(CC)CCCN1C(=O)Nc2ccccc2C1c1ccccc1 (stereo not drawn) | – | 40 nM | – |
| CC1c2ccccc2NC(=O)N1CCCN(C)C (stereo not drawn) | – | 5300 nM | – |
| CN(C)CCCN1C(=O)Nc2ccc(Cl)cc2C1c1ccccc1 (stereo not drawn) | – | 460 nM | – |
| CN(C)CCCN1C(=O)Nc2ccccc2C1C1CCCCC1 (stereo not drawn) | – | 570 nM | – |
| CN(C)CCCN1C(=O)Nc2ccccc2C1c1ccccn1 (stereo not drawn) | – | 510 nM | – |
| CC(C)CCCN1C(=O)Nc2ccccc2C1c1ccccc1 (stereo not drawn) | – | > 10000 nM | – |
| CN(C)CCCN1C(=O)N(C)c2ccc(Cl)cc2C1c1ccccc1 (stereo not drawn) | – | > 10000 nM | – |
| CCN(CC)CCCCN1C(=O)Nc2ccccc2C1c1ccccc1 (stereo not drawn) | – | 1900 nM | – |
| CN(C)CCCN1C(=O)Nc2ccc(Cl)cc2C1c1ccco1 (stereo not drawn) | – | 690 nM | – |
| CCOc1ccc(Oc2ccc(OCc3cc(F)ccc3F)cc2)c(N)c1 | – | – | > 80% |
| CN(C)CCCN1C(=O)Nc2ccccc2C1c1cccs1 (stereo not drawn) | – | 720 nM | – |

Now from value to compound, other results behind:

| pKa [1] | IC30 (Cavia porcellus [2]) | SMILES | Inhibition (Cavia porcellus [3]) |
| --- | --- | --- | --- |
| -0.58 | > 10000 nM | CCN(CC)C(=O)CN1C(=O)Nc2ccccc2C1c1ccccc1 (stereo not drawn) | – |
| – | > 10000 nM | CCOCCN1C(=O)Nc2ccccc2C1c1ccccc1 (stereo not drawn) | – |
| – | 3600 nM | O=C1Nc2ccccc2C(c2ccccc2)N1C1CCN(CCc2ccccc2)CC1 (stereo not drawn) | – |
| – | > 10000 nM | NCCN1C(=O)Nc2ccccc2C1c1ccccc1 (stereo not drawn) | – |
| – | 1100 nM | O=C1Nc2ccccc2C(c2ccccc2)N1C1CCNCC1 (stereo not drawn) | – |
| – | 93 nM | CCCN1CCC(N2C(=O)Nc3ccccc3C2c2ccccc2)CC1 (stereo not drawn) | – |
| – | 87 nM | CN1CCC(N2C(=O)Nc3ccccc3C2c2ccccc2)CC1 (stereo not drawn) | – |
| – | 17 nM | O=C1Nc2ccccc2C(c2ccccc2)N1C1CCN(Cc2ccccc2)CC1 (stereo not drawn) | – |
| – | 580 nM | CCNCCN1C(=O)Nc2ccccc2C1c1ccccc1 (stereo not drawn) | – |
| – | 4000 nM | O=C1Nc2ccccc2C(c2ccccc2)N1C1CCN(CC2CCCCC2)CC1 (stereo not drawn) | – |
| – | 53 nM | CCN1CCC(N2C(=O)Nc3ccccc3C2c2ccccc2)CC1 (stereo not drawn) | – |
| – | 350 nM | CN(C)CCCN1C(=O)Nc2ccccc2C1c1ccccc1 (stereo not drawn) | – |
